For assay [1], the target named is T1, factor VIIa/tissue factor (Homo sapiens, UniProt P08709).
T1 construct: 25 μl human factor VIIa and TF (5 nM and 10 nM, respective final concentrations)
Nature of the assay: Factor VIIa assay (chromogenic, substrate S-2288). It counts as biochemical. How it is done:
(§1) Purified enzymes are used in chromogenic assays.
(§2) Ki=IC50/{1+(substrate concentration/Km)}
Kinetic assays were conducted at 25° C. in half-area microtiter plates (Costar Corp., Cambridge, Mass.) using a kinetic plate reader (Molecular Devices Spectramax 250).

Another assay has as its target T2, human factor Xa (Homo sapiens, UniProt P00742).
T2 construct: purchased Enzyme Research Laboratories, Inc; South Bend, Ind
Nature of the assay: Factor Xa assay (chromogenic, substrate S-2765). It counts as biochemical. On the procedure: as §1, §2
The assay was performed by pre-incubating the compound of interest of formula I plus enzyme for 10 min. The assay was then initiated by adding substrate to obtain a final volume of 100 μl. The initial velocity of chromogenic substrate hydrolysis was measured by the change in absorbance at 405 nm using a Bio-tek Instruments kinetic plate reader (Ceres UV9OOHDi) at 25° C. during the linear portion of the time course (usually 1.5 min after addition of substrate).

[2] abbreviates: inhibition constant for inhibition of factor VIIa, 5 nM factor VIIa and 10 nM TF, 25° C., 500 μM substrate, read-out: Ki (FVIIa).
Setting [3] is: inhibition constant for inhibition of factor Xa, 25° C., 0.5 nM enzyme, 140 μM substrate, read-out: Ki (FXa).

This note sets out measurements from patent US6664393B2 (priority 1999, dated 2003).

pKi: −log10 of the molar value. Where two headings read alike, the source gives them in different places.

T2 sequence (P00742 235-488 limits assumed): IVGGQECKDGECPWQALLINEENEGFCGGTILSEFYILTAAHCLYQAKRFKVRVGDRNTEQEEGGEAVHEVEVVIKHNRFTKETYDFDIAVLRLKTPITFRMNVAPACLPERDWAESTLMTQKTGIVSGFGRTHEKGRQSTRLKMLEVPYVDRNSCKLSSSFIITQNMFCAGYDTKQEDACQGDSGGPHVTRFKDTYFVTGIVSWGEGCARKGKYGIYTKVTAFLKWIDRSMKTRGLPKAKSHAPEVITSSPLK
T2 sequence (P00742 41-179 limits assumed): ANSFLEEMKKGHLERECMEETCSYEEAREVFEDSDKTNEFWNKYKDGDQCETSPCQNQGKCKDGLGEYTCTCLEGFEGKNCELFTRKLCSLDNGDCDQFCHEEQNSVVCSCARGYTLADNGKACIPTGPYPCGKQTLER
T1 sequence (P08709 61-212): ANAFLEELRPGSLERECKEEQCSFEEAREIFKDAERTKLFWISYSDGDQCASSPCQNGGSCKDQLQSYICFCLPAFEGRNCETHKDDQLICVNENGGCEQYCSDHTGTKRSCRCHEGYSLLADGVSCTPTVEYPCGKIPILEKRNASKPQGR
T1 sequence (P08709 213-466): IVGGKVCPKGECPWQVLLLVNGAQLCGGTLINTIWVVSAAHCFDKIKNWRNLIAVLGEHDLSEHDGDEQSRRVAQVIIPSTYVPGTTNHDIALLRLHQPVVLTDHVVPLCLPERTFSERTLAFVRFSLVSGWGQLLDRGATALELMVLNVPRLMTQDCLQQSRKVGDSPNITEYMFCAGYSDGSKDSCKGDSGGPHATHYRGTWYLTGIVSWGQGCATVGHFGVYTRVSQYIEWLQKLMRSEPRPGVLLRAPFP
T1 sequence (P13726 33-295, further chain): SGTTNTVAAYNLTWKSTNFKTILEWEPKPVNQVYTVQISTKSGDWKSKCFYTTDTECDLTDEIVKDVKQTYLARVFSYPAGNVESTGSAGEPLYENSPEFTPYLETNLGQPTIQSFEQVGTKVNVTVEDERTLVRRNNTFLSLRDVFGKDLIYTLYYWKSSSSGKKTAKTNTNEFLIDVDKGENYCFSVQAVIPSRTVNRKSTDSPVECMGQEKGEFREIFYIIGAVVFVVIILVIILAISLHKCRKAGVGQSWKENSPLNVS

Turning to `CN(C)C(=O)[C@H](CCCNC(=N)N)NC(=O)c1cc(O)c(Br)c(OCCc2ccc(Cl)cc2Cl)c1` [Example 45], the negative logarithm of the Ki (pKi) was < 3.70 in assay [1] (setting [2]) and 7.51 on human factor Xa.
In the case of `Cc1cc(C)c(CCOc2cc(C(=O)N[C@@H](CCCNC(=N)N)C(N)=O)nc3ccccc23)c(C)c1` [Example 32], the negative logarithm of the Ki (pKi) (in assay [1]; on human factor Xa) was 4.89 in each case.
Take `CCCOC(=O)[C@H](CCCNC(=N)N)NC(=O)c1cc(O)c(Br)c(OCCc2ccc(Cl)cc2Cl)c1` [Example 47]: the pKi in assay [1] (setting [2]) is < 3.70; at human factor Xa, 7.68.
As for `N=C(N)NCCC[C@H](NC(=O)c1cc(O)c(Br)c(OCCc2ccc(Cl)cc2Cl)c1)C(=O)O` [Example 46], the negative-log Ki (pKi) in assay [1] (setting [2]) was < 3.70; on human factor Xa, 7.23.
For `COc1ccc(C(=O)N[C@@H](CCCNC(=N)N)C(=O)N(C)C)cc1OCCc1ccc(Cl)cc1Cl` [Example 48], in that order: < 3.70 and 6.25.
In the case of `CCCOC(=O)[C@H](CCCNC(=N)N)NC(=O)c1ccc(OC)c(OCCc2ccc(Cl)cc2Cl)c1` [Example 50], the negative logarithm of the Ki (pKi) is < 3.70 in assay [1] (setting [2]) and 6.14 on human factor Xa.
The compound `Cc1ccc(CCOc2cccc(C(=O)N[C@@H](CCCNC(=N)N)C(N)=O)c2)cc1` [Example 16] showed a negative-log Ki (pKi) on human factor Xa of 5.21.
On the same count and under the same terms, with `N=C(N)NCCC[C@H](NC(=O)c1ccc([N+](=O)[O-])c(OCCc2ccc(Cl)cc2)c1)C(N)=O` [Example 11] the figure was 6.72.
As to `N=C(N)NCCC[C@H](NC(=O)c1cc(OCCc2ccc(Cl)cc2Cl)c2ccccc2n1)C(N)=O` [Example 34], the values for the pKi (in assay [1] (setting [2]); at human factor Xa) were 5.01 and 6.12, respectively.
For the compound `N=C(N)NCCC[C@H](NC(=O)c1ccc(NC(=O)CCC(=O)O)c(OCCc2ccc(Cl)cc2Cl)c1)C(N)=O` [Example 4, (S)-N-{4-(1-Carbamoyl-4-guanidinobutylcarbamoyl)-2-[2-(2,4-dichlorophenyl)ethoxy]phenyl}succinamic Acid], the negative logarithm of the Ki (pKi) was 4.38 in assay [1] (setting [2]) and 6.45 at human factor Xa.
`Cc1c(O)cc(C(=O)N[C@@H](CCCNC(=N)N)C(N)=O)cc1OCCc1ccc(Cl)cc1Cl` [Example 6, (S)-N-(1-Carbamoyl-4-guanidinobutyl)-3-[2-(2,4-dichlorophenyl)ethoxy]-5-hydroxy-4-methylbenzamide]: the pKi in assay [1] (setting [2]) is 5.12; at human factor Xa, 7.42.
For `N=C(N)NCCC[C@H](NC(=O)c1ccc([N+](=O)[O-])c(OCCc2ccc(Cl)cc2Cl)c1)C(N)=O` [Example 1, (S)-4-Nitro-N-(1-carbamoyl-4-guanidinobutyl)-3-[2-(2,4-dichlorophenyl)ethoxy]benzamide], in that order: 3.73 and 7.32.
`N=C(N)NCCC[C@H](NC(=O)c1cccc(OCCc2ccc(Cl)cc2)c1)C(N)=O` [Example 8]: the negative logarithm of the Ki (pKi) on human factor Xa is 5.96.
Turning to `N=C(N)NCCC[C@H](NC(=O)c1cc(O)c(Br)c(OCCc2ccc(Cl)cc2Cl)c1)C(=O)NCc1cccnc1` [Example 39, (S)-4-Bromo-3-[2-(2,4-dichlorophenyl)ethoxy]-N-{4-guanidino-1-[(pyridin-3-ylmethyl)carbamoyl]butyl}-5-hydroxybenzamide], the negative logarithm of the Ki (pKi) in assay [1] (setting [2]) was < 3.70; at human factor Xa, 6.35.
With `CC(=O)Nc1ccc(C(=O)N[C@@H](CCCNC(=N)N)C(N)=O)cc1OCCc1ccc(Cl)cc1Cl` [Example 3, (S)-4-Acetylamino-N-(1-carbamoyl-4-guanidinobutyl)-3-[2-(2,4-dichlorophenyl)ethoxy]benzamide], the pKi on human factor Xa (setting [3]) was 6.17.
In the case of `N=C(N)NCCC[C@H](NC(=O)c1cc(O)c(Br)c(OCCc2ccc(Cl)cc2Cl)c1)C(N)=O` [Example 5, (S)-4-Bromo-N-(1-carbamoyl-4-guanidinobutyl)-3-[2-(2,4-dichlorophenyl)-ethoxy]-5-hydroxybenzamide], the pKi in assay [1] (setting [2]) was 4.24; on human factor Xa, 7.74.
For `N=C(N)NCCC[C@H](NC(=O)c1ccc(N)c(OCCc2ccc(Cl)cc2Cl)c1)C(N)=O` [Example 2, (S)-4-Amino-N-(-carbamoyl-4-guanidinobutyl)-3-[2-(2,4-dichlorophenyl)ethoxy]benzamide], the pKi on human factor Xa (setting [3]) is 7.12.

A word on the pKi: it is the Ki on a negative log10 scale, so that one unit is a factor of ten.
